Here are results for 13 compounds from patent US5786355A, “4,6-diarylpyrimidine derivatives and salts thereof” (Taiho Pharmaceutical Co., Ltd., priority 1995, dated 1998).

Assay [1] concerns HUVEC (human umbilical vein endothelial cell). As to the kind of experiment: HUVEC growth inhibition (3H-thymidine uptake). Format: cell-based. The following applies: 3000 cells per well, RPMI-1640 with ECGS, EGF and 2% serum, 48 hours + 17 hours with 3H-thymidine, control as 100%, read-out: IC50 (concentration showing a 50% growth inhibitory activity). The procedure:
To a 96-well microplate, HUVEC (human umbilical vein endothelial cell; product of Kurabo Industries Ltd.) was added in an amount of 3000 cells per well, followed by culturing in 200 μl of RPMI-1640 medium (Nissui Pharmaceutical Co., Ltd.) containing 10 μg/ml of ECGS (Endothelial Cell Growth Supplement; Collaborative Co., Ltd.), 3 ng/ml of EGF ([…]; product of Genzyme Co., Ltd.) and 2% fatal calf serum at 37° C. for 48 hours using 5% CO2. To each well, 0.1 μCi (3.7 KBq) of ^3 H-Tymidine was added, followed by culturing for 17 hours. Then, the cells were collected on a glass filter and washed with 5% trichloroacetic acid and ethanol. The radioactivity taken in was measured by a β-plate (Pharmacia Laboratories, Inc.). The concentration showing a 50% growth inhibitory activity (IC50) was calculated with a control as 100%.

The conditions of assay [2]: J. INDIAN CHEM. SOC., 70, 266-267(1993); cited from earlier work.

Each structure is given as a SMILES string.

On to `CCN(CC)c1nc(-c2cc(OC)c(OC)cc2OC)cc(-c2cc(OC)c(OC)cc2OC)n1` [Compound 9], for which the IC50 in assay [1] was determined as 360 nM.

As to `CCN(CC)c1nc(-c2ccc(OP(=O)(O)O)cc2)cc(-c2cc(OC)c(OC)cc2OC)n1` [Compound 43], the IC50 in assay [1] was 330 nM.

`COc1cc(OC)c(-c2cc(-c3nccs3)nc(N(C)C)n2)cc1OC` [Compound 30]: in assay [1], the IC50 is 700 nM.

Turning to `COc1cc(NS(C)(=O)=O)c(-c2cc(-c3cc(OC)c(OC)cc3OC)nc(N(C)C)n2)cc1OC` [Compound 27], in assay [1], the IC50 was 68 nM.

As to `COc1cc(OC)c(-c2cc(-c3ccc(OCCN(C)C)cc3)nc(N(C)C)n2)cc1OC` [Compound 8], in assay [1], the IC50 came to 1100 nM.

Consider `COc1cc(OC)c(-c2cc(-c3cc(OC)c(OC)cc3OC)nc(NS(C)(=O)=O)n2)cc1OC` [Compound 31], for which, in assay [1], the IC50 was 520 nM.

Turning to `COc1cc(OC)c(-c2cc(-c3cc(OC)c(OC)cc3OC)nc(N(C)C)n2)cc1OC` [Compound 2], in assay [1], the IC50 came to 220 nM.

On to `COc1cc(OC)c(-c2cc(-c3cc(OC)c(OC)cc3OC)nc(N)n2)cc1OC` [Compound 3], for which the IC50 in assay [1] is 250 nM.

Regarding `CCN(CC)c1nc(-c2cc(OC)c(OC)c(OC)c2)cc(-c2cc(OC)c(OC)cc2OC)n1` [Compound 20, 2-diethylamino-4-(3,4,5-trimethoxyphenyl)-6-(2,4,5-trimethoxyphenyl)pyrimidine], the IC50 in assay [1] is 530 nM.

For `COc1ccc(-c2cc(-c3ccc(OC)c(OC)c3)nc(N)n2)c(OC)c1` [2-amino-4-(2,4-dimethoxyphenyl)-6-(3,4-dimethoxyphenyl)pyrimidine], the antibacterial activity result in assay [2] was “no antibacterial activity”.

For `CCN(CC)c1nc(-c2ccc(OC)cc2OC)cc(-c2cc(OC)c(OC)cc2OC)n1` [Compound 17], the IC50 in assay [1] is 530 nM.

`CCN(CC)c1nc(-c2ccc(OCCN3CCCCC3)cc2)cc(-c2cc(OC)c(OC)cc2OC)n1` [Compound 41]: the IC50 in assay [1] is 1700 nM.

In the case of `COc1cc(OC)c(-c2cc(-c3cc(OC)c(O)c(OC)c3)nc(N(C)C)n2)cc1OC` [Compound 24], the IC50 in assay [1] is 210 nM.
